# Reference: US20250032623A1, “HETEROBIFUNCTIONAL COMPOUNDS AND THEIR USE IN TREATING DISEASE” (HALDA THERAPEUTICS OPCO, INC., priority 2021, published 2025)
# Like-named read-outs stand apart in the source and are kept apart here.
# Tests used:
# [1] = test system: HEK293 cells; assay: Cellular growth inhibition assay (CellTiter-Glo), HEK293 cells; format: cell-based; conditions: three days compound treatment, CellTiter-Glo 2.0, read-out: CTG HEK293 GI50
# Procedure: (§1) Exemplary compounds were tested for ability to inhibit the proliferation of HEK293 cells or HeLa cells.
# (§2) HEK293 and HeLa cells were cultured in DMEM medium supplemented with 10% fetal bovine serum and 1% Penn/Strep. Cells were seeded in white 384-well plates at 500 cells/well in […] complete medium. Following seeding, plates were spun at 300×g for three minutes and cultured at 37° C. with 5% CO2 in a humidified tissue culture incubator.
# (§3) After 24 hours, compounds were titrated in 100% DMSO and diluted in complete cell culture medium. […] of compound/media mixture was added to cells to bring total volume in well to […]. DMSO alone was used as a negative control. P lates were then spun at 300×g for three minutes and stored at 37° C. with 5% CO2 for three days.
# (§4) On Day 0 and Day 3 of compound treatment, cell viability was quantified with CellTiter-Glo 2.0 reagent (Promega). After equilibrating microplates at room temperature for 30 minutes, 25 μL CellTiter-Glo 2.0 reagent was dispensed into each well to bring total volume to […]. Plates were mixed on shaker for 2 minutes at 500 rpm, followed by a 10-minute incubation at room temperature. Following a quick spin, luminescence readings were measured with an EnVision Plate Reader. Data was normalized to DMSO treated Day 0 and Day 3 readings. A four-parameter non-linear regression curve fit was applied to dose-response data in GraphPad Prism data analysis software to determine the half maximal growth inhibitory concentration (GI50) for each compound.
# [2] = test system: HeLa cells; assay: Cellular growth inhibition assay (CellTiter-Glo), HeLa cells; format: cell-based; conditions: three days compound treatment, CellTiter-Glo 2.0, read-out: CTG HELA GI50
# Procedure: as §1, §2, §3, §4
# [3] = molecular target: T1, EGFR (Homo sapiens, UniProt P00533); assay: KdELECT binding assay, EGFR
# T1 construct: purchased
# Procedure: Exemplary compounds were tested for ability to bind to EGFR.
# Compounds were tested using a KdELECT assay. Kinase-tagged T7 phage strains were prepared in an E. coli host derived from the BL21 strain. E. coli were grown to log-phase and infected with T7 phage and incubated with shaking at 32° C. until lysis. The lysates were centrifuged and filtered to remove cell debris. The remaining kinases were produced in HEK-293 cells and subsequently tagged with DNA for qPCR detection. Streptavidin-coated magnetic beads were treated with biotinylated small molecule ligands for 30 minutes at room temperature to generate affinity resins for kinase assays. The liganded beads were blocked with excess biotin and washed with blocking buffer (SeaBlock (Pierce), 1% BSA, 0.05% Tween 20, 1 mM DTT) to remove unbound ligand and to reduce non-specific binding. Binding reactions were assembled by combining kinases, liganded affinity beads, and test compounds in 1× binding buffer (20% SeaBlock, 0.17×PBS, 0.05% Tween 20, 6 mM DTT). Test compounds were prepared as 111× stocks in 100% DMSO. Kd values were determined using an 11-point 3-fold compound dilution series with three DMSO control points. All compounds for Kd measurements are distributed by acoustic transfer (non-contact dispensing) in 100% DMSO. The compounds were then diluted directly into the assays such that the final concentration of DMSO was 0.9%. All reactions performed in polypropylene 384-well plate. Each was a final volume of 0.02 mL. The assay plates were incubated at room temperature with shaking for 1 hour and the affinity beads were washed with wash buffer (1× PBS, 0.05% Tween 20). The beads were then re-suspended in elution buffer (1× PBS, 0.05% Tween 20, 0.5 μM nonbiotinylated affinity ligand) and incubated at room temperature with shaking for 30 minutes. The kinase concentration in the eluates was measured by qPCR.
# T1 sequence (P00533 25-1210): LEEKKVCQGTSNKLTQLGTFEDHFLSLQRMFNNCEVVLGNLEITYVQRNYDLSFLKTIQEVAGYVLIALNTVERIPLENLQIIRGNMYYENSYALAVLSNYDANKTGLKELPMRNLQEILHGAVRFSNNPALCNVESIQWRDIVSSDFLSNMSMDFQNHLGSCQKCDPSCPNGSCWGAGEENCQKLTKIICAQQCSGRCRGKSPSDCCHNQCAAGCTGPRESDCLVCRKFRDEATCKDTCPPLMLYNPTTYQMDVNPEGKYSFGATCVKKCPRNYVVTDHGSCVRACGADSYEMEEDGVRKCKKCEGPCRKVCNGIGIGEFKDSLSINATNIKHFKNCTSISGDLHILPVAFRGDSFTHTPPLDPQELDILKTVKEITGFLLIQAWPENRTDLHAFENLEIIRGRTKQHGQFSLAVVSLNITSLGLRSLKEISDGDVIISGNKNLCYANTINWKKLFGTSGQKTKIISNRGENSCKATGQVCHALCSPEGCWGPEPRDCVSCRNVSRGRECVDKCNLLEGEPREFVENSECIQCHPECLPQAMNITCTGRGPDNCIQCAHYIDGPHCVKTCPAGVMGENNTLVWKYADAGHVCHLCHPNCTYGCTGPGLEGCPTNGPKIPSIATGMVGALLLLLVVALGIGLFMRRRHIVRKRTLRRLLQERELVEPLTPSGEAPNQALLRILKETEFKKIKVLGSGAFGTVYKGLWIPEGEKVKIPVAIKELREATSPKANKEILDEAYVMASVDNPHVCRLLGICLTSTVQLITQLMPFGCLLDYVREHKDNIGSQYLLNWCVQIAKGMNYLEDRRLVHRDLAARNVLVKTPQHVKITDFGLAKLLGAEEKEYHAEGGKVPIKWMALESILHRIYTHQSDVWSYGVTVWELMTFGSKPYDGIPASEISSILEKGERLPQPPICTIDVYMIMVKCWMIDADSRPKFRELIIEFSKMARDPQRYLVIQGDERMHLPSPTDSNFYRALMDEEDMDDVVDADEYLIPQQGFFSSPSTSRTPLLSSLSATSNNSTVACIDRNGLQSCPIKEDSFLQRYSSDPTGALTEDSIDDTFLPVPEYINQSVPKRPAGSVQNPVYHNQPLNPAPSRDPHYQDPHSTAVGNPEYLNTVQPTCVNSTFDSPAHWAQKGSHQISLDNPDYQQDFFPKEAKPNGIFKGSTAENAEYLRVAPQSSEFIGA
SMILES,"GI50 ([1]; Homo sapiens, 72 h) [nM]","GI50 ([2]; Homo sapiens, 72 h) [nM]",also measured
"C=CC(=O)N[C@@H]1CN(c2nc(Nc3cn(CCOCCOCCOCCOCCOc4ccc(CNc5cc(N6CCCC[C@H]6CCO)nc6c(CC)cnn56)cn4)nc3OC)c3ncn(C)c3n2)C[C@H]1F [Compound I-145, N-[(3R,4R)-1-[6-[[1-[2-[2-[2-[2-[2-[[5-[[[3-ethyl-5-[(2S)-2-(2-hydroxyethyl)-1-piperidyl]pyrazolo[1,5-a]pyrimidin-7-yl]amino]methyl]-2-pyridyl]oxy]ethoxy]ethoxy]ethoxy]ethoxy]ethyl]-3-methoxy-pyrazol-4-yl]amino]-9-methyl-purin-2-yl]-4-fluoro-pyrrolidin-3-yl]prop-2-enamide]",< 500,< 500,–
"C=CC(=O)N[C@@H]1CN(c2nc(Nc3cn(CCCCCCCCNS(=O)(=O)c4ccc(Nc5ncc(Br)c(Nc6cccc(F)c6C(N)=O)n5)cc4)nc3OC)c3ncn(C)c3n2)C[C@H]1F [Compound I-148, 2-[[5-bromo-2-[4-[8-[4-[[2-[(3R,4R)-3-fluoro-4-(prop-2-enoylamino)pyrrolidin-1-yl]-9-methyl-purin-6-yl]amino]-3-methoxy-pyrazol-1-yl]octylsulfamoyl]anilino]pyrimidin-4-yl]amino]-6-fluoro-benzamide]",< 500,< 500,–
"CC[C@@H]1C(=O)N(C)c2cnc(Nc3ccc(C(=O)NCCN(C)C/C=C/C(=O)Nc4cc(Nc5nccc(-c6cn(C)c7ccccc67)n5)c(OC)cc4N(C)CCN(C)C)cc3OC)nc2N1C1CCCC1 [Compound I-116, 4-[[(7R)-8-cyclopentyl-7-ethyl-5-methyl-6-oxo-7H-pteridin-2-yl]amino]-N-[2-[[(E)-4-1[2-[2-(dimethylamino)ethyl-methyl-amino]-4-methoxy-5-[[4-(1-methylindol-3-yl)pyrimidin-2-yl]amino]anilino]-4-oxo-but-2-enyl]-methyl-amino]ethyl]-3-methoxy-benzamide]",1500 to 5000,–,–
"CC[C@@H]1C(=O)N(C)c2cnc(Nc3ccc(C(=O)NCCN(C)C/C=C/C(=O)NC4CN(c5nc(Nc6cn(C)nc6OC)c6ncn(C)c6n5)C[C@H]4F)cc3OC)nc2N1C1CCCC1 (stereo partly drawn) [Compound I-119, 4-[l[(7R)-8-cyclopentyl-7-ethyl-5-methyl-6-oxo-7H-pteridin-2-yl]amino]-N—[2-[ [(E)-4-[ [(3R,4R)-4-fluoro-1-[6-[(3-methoxy-1-methyl-pyrazol-4-yl)amino]-9-methyl-purin-2-yl]pyrrolidin-3-yl]amino]-4-oxo-but-2-enyl]-methyl-amino]ethyl]-3-methoxy-benzamide]",1500 to 5000,–,–
"C=CC(=O)N[C@@H]1CN(c2nc(Nc3cn(CCCN4CCN(CCCOc5ccc(CNc6cc(N7CCCC[C@H]7CCO)nc7c(CC)cnn67)cn5)CC4)nc3OC)c3ncn(C)c3n2)C[C@H]1F [Compound I-147, N-[(3R,4R)-1-[6-[[1-[3-[4-[3-[[5-[[[3-ethyl-5-[(2S)-2-(2-hydroxyethyl)-1-piperidyl]pyrazolo[1,5-a]pyrimidin-7-yl]amino]methyl]-2-pyridyl]oxy]propyl]piperazin-1-yl]propyl]-3-methoxy-pyrazol-4-yl]amino]-9-methyl-purin-2-yl]-4-fluoro-pyrrolidin-3-yl]prop-2-enamide]",< 500,500 to 1500,–
"C=CC(=O)N[C@@H]1CN(c2nc(Nc3cn(CCOCCOCCNS(=O)(=O)c4ccc(Nc5ncc(Br)c(Nc6cccc(F)c6C(N)=O)n5)cc4)nc3OC)c3ncn(C)c3n2)C[C@H]1F [Compound I-142, 2-[[5-bromo-2-[4-[2-[2-[2-[4-[[2-1[(3R,4R)-3-fluoro-4-(prop-2-enoylamino)pyrrolidin-1-yl]-9-methyl-purin-6-yl]amino]-3-methoxy-pyrazol-1-yl]ethoxy]ethoxy]ethylsulfamoyl]anilino]pyrimidin-4-yl]amino]-6-fluoro-benzamide]",–,–,GI50 [1]: > 5000 nM; GI50 [2]: 1500 to 5000 nM
C=CC(=O)N[C@@H]1CN(c2nc(Nc3cn(CCOCCOCCOCCOCCON(C)C(=O)N4N=C(c5cc(F)ccc5F)SC4(CCCN)c4ccccc4)nc3OC)c3ncn(C)c3n2)C[C@H]1F (some centres unmarked) [Compound I-66],–,–,Kd [3]: < 50 nM
"CC[C@@H]1C(=O)N(C)c2cnc(Nc3ccc(C(=O)NCCCN4CCN(CCCN(C)C/C=C/C(=O)Nc5cc(Nc6nccc(-c7cn(C)c8ccccc78)n6)c(OC)cc5N(C)CCN(C)C)CC4)cc3OC)nc2N1C1CCCC1 [Compound I-151, 4-[[(7R)-8-cyclopentyl-7-ethyl-5-methyl-6-oxo-7H-pteridin-2-yl]amino]-N-[3-[4-[3-[[(E)-4-[2-[2-(dimethylamino)ethyl-methyl-amino]-4-methoxy-5-[[4-(1-methylindol-3-yl)pyrimidin-2-yl]amino]anilino]-4-oxo-but-2-enyl]-methyl-amino]propyl]piperazin-1-yl]propyl]-3-methoxy-benzamide]",500 to 1500,< 500,–
"C=CC(=O)N[C@@H]1CN(c2nc(Nc3cn(CCOCCOCCOc4ccc(CNc5cc(N6CCCC[C@H]6CCO)nc6c(CC)cnn56)cn4)nc3OC)c3ncn(C)c3n2)C[C@H]1F [Compound I-144, N-[(3R,4R)-1-[6-[[1-[2-[2-[2-[[5-1[[[3-ethyl-5-[(2S)-2-(2-hydroxyethyl)-1-piperidyl]pyrazolo[1,5-a]pyrimidin-7-yl]amino]methyl]-2-pyridyl]oxy]ethoxy]ethoxy]ethyl]-3-methoxy-pyrazol-4-yl]amino]-9-methyl-purin-2-yl]-4-fluoro-pyrrolidin-3-yl]prop-2-enamide]",–,–,GI50 [1]: < 500 nM; GI50 [2]: < 500 nM
"C=CC(=O)NC1CN(c2nc(Nc3cn(CCOCCOCCOCCOCCOCCOCCNC(=O)c4ccc(Nc5ncc6c(n5)N(C5CCCC5)[C@H](CC)C(=O)N6C)c(OC)c4)nc3OC)c3ncn(C)c3n2)C[C@H]1F (stereo partly drawn) [Compound I-114, 4-[[(7R)-8-cyclopentyl-7-ethyl-5-methyl-6-oxo-7H-pteridin-2-yl]amino]-N-[2-[2-[2-[2-[2-[2-[2-[4-[[2-[(3R)-3-fluoro-4-(prop-2-enoylamino)pyrrolidin-1-yl]-9-methyl-purin-6-yl]amino]-3-methoxy-pyrazol-1-yl]ethoxy]ethoxy]ethoxy]ethoxy]ethoxy]ethoxy]ethyl]-3-methoxy-benzamide]",1500 to 5000,–,–
"Cc1c(CC(=O)N(C)C)ccc(NC(=O)c2nn([C@@H]3CCCN(C(=O)/C=C/CN(C)CCOCCOCC(=O)NCCCCn4nc(-c5ccc6oc(N)nc6c5)c5c(N)ncnc54)C3)c3ncnc(N)c23)c1C [Compound I-83, 4-amino-1-[(3R)-1-[(E)-4-[2-1[2-[2-[4-[4-amino-3-(2-amino-1,3-benzoxazol-5-yl)pyrazolo[3,4-d]pyrimidin-1-yl]butylamino]-2-oxo-ethoxy]ethoxy]ethyl-methyl-amino]but-2-enoyl]-3-piperidyl]-N-[4-[2-(dimethylamino)-2-oxo-ethyl]-2,3-dimethyl-phenyl]pyrazolo[3,4-d]pyrimidine-3-carboxamide]",–,–,GI50 [1]: 1500 to 5000 nM; GI50 [2]: > 5000 nM
CCc1cnn2c(NCc3ccc(OCCOCCOCCOCCOCCN(C)C/C=C/C(=O)N4CCN(c5nc(=O)n(-c6c(C)ccnc6C(C)C)c6nc(-c7c(O)cccc7F)c(F)cc56)[C@@H](C)C4)nc3)cc(N3CCCC[C@H]3CCO)nc12 [Compound I-76],> 5000,> 5000,–
